From US20260242390A1, “TOTAL SYNTHESES OF PORTIMINE A AND ANALOGUES THEREOF AS SMALL MOLECULE MODULATORS OF NMD3” (priority 2023, published 2026)

Test system: Jurkat cells
Assay: Cell cycle analysis, propidium iodide flow cytometry
Format: cell-based, human
Conditions: for G2M/sub-G1 (mostly apoptotic cells) / S phase entry: Jurkat cells, 10 nM treatment, 24 hr
Description: FIG. 2. […] Cell cycle analysis in Jurkat cells. Jurkat cells were treated with 10 nM of indicated compounds for 24 hours, and propodium iodide was used to identify different stages of cells by flow cytometry.
FIG. 6. Portimine A inhibits S phase entry in Jurkat cells. Portimine A downregulates NMD3 at protein level but upregulates in mRNA level in cells, as well as some essential apoptosis proteins. […] Protein degradation of p53, Mcl1, Bid, Bim, Noxa can be rescued by MG132 or Epoxomicin. (B) NMD3 mRNA increased after PA treatment, but not ePA control compound. Jurkat cells were treated with indicated compounds for 24 hr; Cells were then fixed and perform Propidium Iodide staining.
• 1) Portimine A and its functional analogs show stereo-selective acute toxicity in cancer cells (FIG. 1). […] (B) Structure of portimine related analogs: phenyl-portimine A (Ph-PA, 36) and epi-portimine A (ePA, 38). Structure of fully functionalized portimine A-based epimeric probe pair: portimine A-diazirine-alkyne (PA-DA, 35-2) and epi-portimine A-diazirine-alkyne (ePA-DA, 35-1). (C) Cell viability analysis of portimine A and analogs. Jurkat cells were treated with increasing concentrations of portimine A and analogs for 24 hours. All presented data as mean of biological replicated experiments (n=3). […] Jurkat cells were treated with portimine A or analogs for 12 hours at 10 nM. […] Structurally related negative control ePA and PB are non-toxic in all cell types in the current concentrate range. PBMCs (25k per well), Jurkat (10k per well). […] Cell cycle analysis in Jurkat cells (FIG. 2). Jurkat cells were treated with 10 nM of indicated compounds for 24 hours, and propodium iodide was used to identify different stages of cells by flow cytometry. […] (A) PA and Ph-PA show less toxic to healthy PBMCs compared to Jurkat cells. […] (B) Immunoblot of caspase-3 in Jurkat and PBMCs with indicated conditions. […] (A) Pharmacokinetic studies of mouse intraperitoneal (i.p.) and oral (p.o.) administration for portimine (n=3). […] Impact of PA [0.3 or 1 mg/kg intraperitoneally] on MC38 tumor growth in WT mice (n=6). (C) Kaplan-Myer survival curve of WT MC38 tumor-bearing mice (n=6) after treatment with PA as described in (D). Mice were euthanized when tumor area exceeded 2000 mm^3. Statistical analysis was performed using ANOVA analysis followed by multiple comparisons test, * p≤0.05. Treatment condition: Jurkat (60 M per condition); PA-DA/ePA-DA concentration: 0.5 uM, PA or ePA: 5 uM; Incubate with probe with or without competitors (PA, ePA) for 30 min; UV irradiated for 20 min. (0.5 uM PA-DA add a no-UV condition), Standard pulldown & biotin-enrichment and western blot analysis (Elute condition: 2× sample buffer+500 uM biotin, boil for 20 mins); Primary antibody NMD3 (ProteinTech, 1:150), Actin (BioRad, 1:10000). […] Chemical proteomic profiling with PA-DA in Jurkat cells (A, B, C, G) and HCC1806 cells (D, E, F, H) show NMD3 is the primary target candidate of portimine A. Volcano plot in panels A and D show protein competition in cells treated with active photoaffinity probe PA-DA (500 nM) and DMSO or the active competitor portimine A (PA, […]), dotted lines indicate threshold of fold change <4, p-value>0.05. […] (I, J) Confirmation of PA-DA engagement of NMD3 in Jurkat and HCC1806 cells. […] Treatment condition: Jurkat (5M per well). Portimine A concentration: 2 nM-1000 nM; In total treat cell for 12 hours. […] Protein degradation of p53, Mcl1, Bid, Bim, Noxa can be rescued by MG132 or Epoxomicin. […]

Structure (SMILES)	cell cycle arrest in Jurkat cells (10 nM, 24 hours)	G2M/sub-G1 (mostly apoptotic cells)	S phase entry
C=CC1=C[C@@H]2[C@@H]3O[C@]4(CC[C@H](O4)C(C)C[C@@H](O)C3=O)CC(O)C3=NCC[C@@]32CC1 (some centres unmarked) [PA, portimine A]	triggers cell cycle arrest	does not affect	inhibited
C#CCCC1(CCNC(=O)c2ccc(C3=C[C@@H]4[C@@H]5O[C@]6(CC[C@H](O6)C(C)C[C@@H](O)C5=O)CC(O)C5=NCC[C@@]54CC3)cc2)N=N1 (some centres unmarked) [PA-DA, portimine A-diazirine-alkyne]		does not affect	inhibited
